Key:
[1] = test system: HEK 293 human embryonic kidney cells; test: Cell viability test (MTT cytotoxicity); format: cell-based; conditions: 48 h, row marked pH 7.4
Description: Cell viability test. Cytotoxicity of different components was tested through MTT assays. HEK 293 human embryonic kidney cells were seeded onto a 96-well plate (1×10^4 cells/well) and cultured overnight. The cells were then treated with various polymers or PDCs with serial dilutions for 48 h and their viability was measured by a standard MTT assay. Data were collected by monitoring the difference between the absorbance at 560 nm and 650 nm using a GloMax-Multi Microplate Multimode Reader (Promega, Wis., USA).

E. coli ATCC 25922 = test: Checkerboard assay, FIC index; format: cell-based
Description: (§1) Fractional inhibitory concentration (FIC) measurement. The synergy between the cationic polymer and streptomycin was assessed by checkerboard assays. The two antibacterial components were mixed in a 96-well plate with serial two-dimensional dilutions. Bacteria were inoculated in each well of the plate and their growth, reflected by the OD600 value, were monitored. The synergy effect was evaluated by calculating the FIC index according to the formula below:
(§2) [formula] MICA^Comb and MICB^Comb indicate the MICs of the two components in combination. The interactions between the two components are defined according to standard criteria of considering FIC≤0.5 as synergistic; 0.5<FIC≤1 as additive; 1<FIC≤4 as indifference; and FIC>4 as antagonism.

P. aeruginosa ATCC 27853 [2] = test: Checkerboard assay, FIC index; format: cell-based
Description: as §1, §2

[3] = test system: methicillin-resistant S. aureus (MRSA, ATCC 33591); test: Checkerboard assay, FIC index; format: cell-based
Description: as §1, §2

E. coli biofilm = test: Biofilm inhibition assay (crystal violet); format: cell-based; conditions: streptomycin concentration 16 μg/mL
Description: (§3) Biofilm inhibition assays. Exponentially growing bacteria were inoculated into 96 well plates (1×10^4 cell/well) containing MHB broth with 2% (v/w) glucose, incubated under stationary conditions at 37° C. for one day. After biofilm formation, the media was discarded and the plates were washed with PBS to remove the planktonic bacteria. Fresh NMB broth containing serially diluted free streptomycin or PDC were added to the plates and incubated at 37° C. for another 24 h. The media in each well was then removed, and the plates were washed carefully with PBS for 1 time. The biofilm in each well was fixed with 95% ethanol for 15 min and stained with 0.1% crystal violet for 15 min. After washing with Milli-Q water for three times, 33% v/v acetic acid (100 μL/well) was added to solubilize the crystal violet staining. OD 560 in each well was read to determine the biofilm formation. The biofilm formed as described above was also stained with acridine orange and Cy5 labeled PDC, and monitored by CLSM to observe the PDC penetration.

P. aeruginosa biofilm = test: Biofilm inhibition assay (crystal violet); format: cell-based; conditions: 256 μg/mL streptomycin
Description: as §3

MRSA biofilm = test: Biofilm inhibition assay (crystal violet); format: cell-based, S. aureus
Description: as §3

P. aeruginosa ATCC 27853 [4] = test: Mouse lung infection model; format: in vivo, ICR mice
Description: Mouse lung infection model. […] In another experiment of monitoring the mice survival for the lung infection model, the P. aeruginosa infected mice were given 2 treatments (1 h and 8 h after the infection) and their survival was observed using Kaplan-Meier curves (n=5).

Hex-Cys-Cys-DET-strep-DMA [Neutralized PDC]
HEK293 IC50 [1]: >2000 µg/mL
FICI of the two components in the PDC (tethered together) (E. coli ATCC 25922): 0.362
FICI of the two components in the PDC (tethered together) (P. aeruginosa ATCC 27853 [2]): 0.306
FICI of the two components in the PDC (tethered together) [3]: 0.475
biofilm eliminated (E. coli biofilm): 75%
biofilm reduced / removed (P. aeruginosa biofilm): 96%
biofilm removed (MRSA biofilm; equivalent of 32 μg/mL streptomycin, acidic conditions): More than 90%
biofilm eliminated (MRSA biofilm; streptomycin concentration 16 μg/mL): 75%
survival, in words (P. aeruginosa ATCC 27853 [4]; 2 i.v. injections (1 h and 8 h after the infection)): all of the PDC treated mice survived
bacterial burden in lungs, in words (P. aeruginosa ATCC 27853 [4]; single i.v. injection 1 h after infection, CFU per lung at 12 h): lowest bacterial burden in their lungs

Source: patent US11911406B2, “PH-responsive polymer-drug conjugates for enhanced antibacterial efficacy” (priority 2020, dated 2024)
